Measured values as given in US20190307820A1, “COMPOSITIONS AND METHODS OF USING STAT1/3 INHIBITORS WITH ONCOLYTIC HERPES VIRUS” (priority 2016, published 2019).

Experiments:
ICP4 = assay: Western blot of ICP4 in HSV-1 infected microglia cells; format: cell-based; conditions: G207 infected; 1 μM C16, 1 μM Bay11 or 100 μM AG; 24 hours
Description: FIG. 12B depicts an electrophoresis gel showing total proteins that were harvested from G2O7 infected microglia cells at 24 hours post treatment with either 1 μM of C16, 1 μM of Bay11, or 100 μM of AG. ICP27, ICP4, and […] expression was measured by western blot assay. U87 and MG co-culture were pretreated with 0.5 μM of C16 for 1 hour.
Total protein was harvested with sample buffer (125 mM Tris-HCL, 50% Glycerol, […] and 5% 2-mercaptoethanol) and boiled for 5 minutes. Protein samples were subjected to SDS-PAGE (8% gel), transferred to nitrocellulose membranes and blocked in 5% nonfat milk (Bio Rad) in TBS-Tween 20 (TBS-T) for 1 hour at room temperature. The membranes were then incubated with primary antibody against β-actin at 1:1000 (Cell Signaling, Danvers, Mass.) or anti-STAT1 antibody at 1:1000 (Cell Signaling, Danvers, Mass.) or anti-STAT3 antibody at 1:1000 (Cell Signaling, Danvers, Mass.) or anti-phospho STAT1 antibody (Tyr701) at 1:1000 (Cell Signaling, Danvers, Mass.) or anti-phospho STAT3 antibody (Tyr705) at 1:1500 (Cell Signaling, Danvers, Mass.) or anti-phosphor-eIF2a antibody (ser51) at 1:1000 (Cell Signaling, Danvers, Mass.) or anti-ICP27 antibody at 1:1000 (Abcam, Cambridge, Mass.) or anti-ICP4 antibody at 1:750 (Abcam, Cambridge, Mass.) for overnight at 4° C. […] Band density was measured by using ImageJ software (NIH, Bethesda, Md.). […]

[1] = system: oHSV-1 (G207) in U87 tumors; assay: U87 xenograft, C16 with G207: viral DNA qPCR and immunohistochemistry of tumors; format: in vivo, mice; conditions: 5 mg/kg C16, day 13
Description: FIG. 14A is a bar graph showing that C16 triggers oHSV-1 protein expression in microglia/macrophages and enhances virus concentration in glioblastoma in vivo. U87 xenograft mice were treated with vehicle or 5 mg/kg C16 with or without 6×10^6 PFU/ml oHSV-1 (G207) viruses (n=2). Two doses of G207 or vehicle and 4 doses (in every 3 or 4 days) of C16 was administered in total. Tumors were harvested at day 13 post-treatment. Total genomic DNA was extracted from the harvested tumors (n=2) and viral DNA (ICP27) was measured by qPCR (normalized to β-actin). Data shown are relative 2-ΔΔCT value±SE.
5 to 6 weeks old female athymic nude mice were obtained from Harlon laboratories. Human glioma U87 cells were implanted subcutaneously into the lower flank. When tumor size reached ˜75 to 100 mm3, vehicle or C16 (5 mg/kg) was administered intraperitoneally (IP). 2 days (FIG. 14) or 4 days (FIG. 15) after initial C16 administration, vehicle or oHSV-1 were injected intratumourally. Tumor volume was then measured using a caliper (Height×Length×Wide/2). At the end of the experiment, mice were euthanized by using CO2 asphyxiation.
DNA was extracted from 4% paraformaldehyde fixed tumor tissues by using an EZNA tissue DNA kit (Omega Bioteck). […]

[2] = system: oHSV-1 (HrR3) in 9L cells; assay: oHSV-1 (HrR3) replication in 9L cells, titrated in vero cells; format: cell-based, HSV-1; conditions: HrR3 MOI-0.1, 48 hours
Description: FIGS. 2A-2B contain charts that show the effect of nifuroxazide on replication of oHSV-1. (FIG. 2A) Indicated cells were infected with HrR3 viruses at MOI-0.1. Viruses were harvested at 48 hours post-infected and titrated in vero cells. Data are presented as mean SD, *P<0.05 vs corresponding vehicle treatment. (FIG. 2B) U87 or glio cells were treated with HrR3 at a MOI of 1 and indicated concentration of nifuroxazide for 48 hours. Total DNA was extracted and subjected to qPCR to detect HSV-1 using ICP27 primer. nifuroxazide mediated oHSV-1% increase was represented in the figure.
In this example, the effect of nifuroxazide on oHSV-1 anti-tumor efficacy was evaluated. oHSV-1 infected treated glioma cells were incubated with low concentration of nifuroxazide. Replication increased 27- and 40-fold with 0.5 μM nifuroxazide and 10 μM nifuroxazide treated U87 cells respectively. Similarly, virus replication increased 0.8- and 4.7-fold virus in 9L cells treated with 0.5 μM nifuroxazide and 10 μM nifuroxazide respectively (FIG. 2A).

| Structure (SMILES) | upregulated expression of ICP4 (ICP4) [fold] | oHSV-1 titer in the tumor mass (viral DNA copy number, qPCR) [1] | virus replication increased ([2]; 0.5 μM nifuroxazide) [fold] | virus replication increased ([2]; 10 μM nifuroxazide) [fold] |
| --- | --- | --- | --- | --- |
| O=C1Nc2ccc3ncsc3c2/C1=C/c1c[nH]cn1 [C16, 6,8-Dihydro-8-(1H-imidazol-5-ylmethylene)-7H-pyrrolo[2,3-g]benzothiazol-7-one] | 1.8 | significantly enhanced oHSV-1 titer | – | – |
| O=C(N/N=C/c1ccc([N+](=O)[O-])o1)c1ccc(O)cc1 [nifuroxazide, Benzoic acid, 4-hydroxy-, [(5-nitro-2-furanyl)metylene]hydrazide] | – | – | 0.8 | 4.7 |
